Data reported in the supplement of paper PMC8882468.

test system: HCI-024 (organoid from a breast cancer xenograft); assay: CTG-3D luminescence at 96 h relative to day-0 seeding control (ratio to day 0); higher = more growth / less cytotoxicity; PDxO 3D drug screen (set 2), 96 h, CTG-3D normalised to day-0 seeding control.; conditions: 0.005 µM; days in culture: 254

Compared with `CCOc1ccn(-c2ccc(F)cc2)c(=O)c1C(=O)Nc1ccc(Oc2ccnc(N)c2Cl)c(F)c1` [ASLAN002], `O=C(c1cc(Cc2n[nH]c(=O)c3ccccc23)ccc1F)N1CCN(C(=O)C2CC2)CC1` [olaparib] is higher in “CTG-3D luminescence at 96 h” value: 0.968 for the first, 1.28 for the second.

Compared with `C[C@@H](Nc1cc(F)cc(F)c1)c1cc(C(=O)N(C)C)cc2c(=O)cc(N3CCOCC3)oc12` [AZD-8186], `CC(=O)c1c(C)c2cnc(Nc3ccc(N4CCNCC4)cn3)nc2n(C2CCCC2)c1=O` [palbociclib] is lower in “CTG-3D luminescence at 96 h” value: 1.81 for the first, 0.864 for the second.

For `COc1cccc2c1C(=O)c1c(O)c3c(c(O)c1C2=O)C[C@@](O)(C(=O)CO)C[C@@H]3O[C@H]1C[C@H](N)[C@@H](O)[C@H](C)O1` [epirubicin], the “CTG-3D luminescence at 96 h” value was 0.967.

same assay, conditions: 0.1 µM; days in culture: 202

Compared with `CCOc1ccn(-c2ccc(F)cc2)c(=O)c1C(=O)Nc1ccc(Oc2ccnc(N)c2Cl)c(F)c1` [ASLAN002], `O=C(c1cc(Cc2n[nH]c(=O)c3ccccc23)ccc1F)N1CCN(C(=O)C2CC2)CC1` [olaparib] is higher in “CTG-3D luminescence at 96 h” value: 1.27 for the first, 1.28 for the second.

Going from `C[C@@H](Nc1cc(F)cc(F)c1)c1cc(C(=O)N(C)C)cc2c(=O)cc(N3CCOCC3)oc12` [AZD-8186] to `CC(=O)c1c(C)c2cnc(Nc3ccc(N4CCNCC4)cn3)nc2n(C2CCCC2)c1=O` [palbociclib], the “CTG-3D luminescence at 96 h” value falls from 1.33 to 1.26.

In the case of `COc1cccc2c1C(=O)c1c(O)c3c(c(O)c1C2=O)C[C@@](O)(C(=O)CO)C[C@@H]3O[C@H]1C[C@H](N)[C@@H](O)[C@H](C)O1` [epirubicin], the “CTG-3D luminescence at 96 h” value is reported as 0.943.

same assay, conditions: 0.1 µM; days in culture: 231

Going from `CCOc1ccn(-c2ccc(F)cc2)c(=O)c1C(=O)Nc1ccc(Oc2ccnc(N)c2Cl)c(F)c1` [ASLAN002] to `O=C(c1cc(Cc2n[nH]c(=O)c3ccccc23)ccc1F)N1CCN(C(=O)C2CC2)CC1` [olaparib], the “CTG-3D luminescence at 96 h” value rises from 1.05 to 1.27.

First: C[C@@H](Nc1cc(F)cc(F)c1)c1cc(C(=O)N(C)C)cc2c(=O)cc(N3CCOCC3)oc12 [AZD-8186]
Second: CC(=O)c1c(C)c2cnc(Nc3ccc(N4CCNCC4)cn3)nc2n(C2CCCC2)c1=O [palbociclib]
The “CTG-3D luminescence at 96 h” value of the first is higher: 1.01 for the first, 0.956 for the second.

In the case of `COc1cccc2c1C(=O)c1c(O)c3c(c(O)c1C2=O)C[C@@](O)(C(=O)CO)C[C@@H]3O[C@H]1C[C@H](N)[C@@H](O)[C@H](C)O1` [epirubicin], the “CTG-3D luminescence at 96 h” value is reported as 0.91.

same assay, conditions: 0.1 µM; days in culture: 254

Compared with `CCOc1ccn(-c2ccc(F)cc2)c(=O)c1C(=O)Nc1ccc(Oc2ccnc(N)c2Cl)c(F)c1` [ASLAN002], `O=C(c1cc(Cc2n[nH]c(=O)c3ccccc23)ccc1F)N1CCN(C(=O)C2CC2)CC1` [olaparib] is lower in “CTG-3D luminescence at 96 h” value: 1.46 for the first, 1.24 for the second.

First: C[C@@H](Nc1cc(F)cc(F)c1)c1cc(C(=O)N(C)C)cc2c(=O)cc(N3CCOCC3)oc12 [AZD-8186]
Second: CC(=O)c1c(C)c2cnc(Nc3ccc(N4CCNCC4)cn3)nc2n(C2CCCC2)c1=O [palbociclib]
The “CTG-3D luminescence at 96 h” value of the first is higher: 2.04 for the first, 0.919 for the second.

In the case of `COc1cccc2c1C(=O)c1c(O)c3c(c(O)c1C2=O)C[C@@](O)(C(=O)CO)C[C@@H]3O[C@H]1C[C@H](N)[C@@H](O)[C@H](C)O1` [epirubicin], the “CTG-3D luminescence at 96 h” value is reported as 0.838.

same assay, conditions: 1 µM; days in culture: 202

Compared with `CCOc1ccn(-c2ccc(F)cc2)c(=O)c1C(=O)Nc1ccc(Oc2ccnc(N)c2Cl)c(F)c1` [ASLAN002], `O=C(c1cc(Cc2n[nH]c(=O)c3ccccc23)ccc1F)N1CCN(C(=O)C2CC2)CC1` [olaparib] is higher in “CTG-3D luminescence at 96 h” value: 0.701 for the first, 0.775 for the second.

Going from `C[C@@H](Nc1cc(F)cc(F)c1)c1cc(C(=O)N(C)C)cc2c(=O)cc(N3CCOCC3)oc12` [AZD-8186] to `CC(=O)c1c(C)c2cnc(Nc3ccc(N4CCNCC4)cn3)nc2n(C2CCCC2)c1=O` [palbociclib], the “CTG-3D luminescence at 96 h” value rises from 0.84 to 1.7.

For `COc1cccc2c1C(=O)c1c(O)c3c(c(O)c1C2=O)C[C@@](O)(C(=O)CO)C[C@@H]3O[C@H]1C[C@H](N)[C@@H](O)[C@H](C)O1` [epirubicin], the “CTG-3D luminescence at 96 h” value was 0.189.

same assay, conditions: 1 µM; days in culture: 231

Going from `CCOc1ccn(-c2ccc(F)cc2)c(=O)c1C(=O)Nc1ccc(Oc2ccnc(N)c2Cl)c(F)c1` [ASLAN002] to `O=C(c1cc(Cc2n[nH]c(=O)c3ccccc23)ccc1F)N1CCN(C(=O)C2CC2)CC1` [olaparib], the “CTG-3D luminescence at 96 h” value rises from 1.25 to 1.78.

Going from `C[C@@H](Nc1cc(F)cc(F)c1)c1cc(C(=O)N(C)C)cc2c(=O)cc(N3CCOCC3)oc12` [AZD-8186] to `CC(=O)c1c(C)c2cnc(Nc3ccc(N4CCNCC4)cn3)nc2n(C2CCCC2)c1=O` [palbociclib], the “CTG-3D luminescence at 96 h” value falls from 1.32 to 1.09.

For `COc1cccc2c1C(=O)c1c(O)c3c(c(O)c1C2=O)C[C@@](O)(C(=O)CO)C[C@@H]3O[C@H]1C[C@H](N)[C@@H](O)[C@H](C)O1` [epirubicin], the “CTG-3D luminescence at 96 h” value was 0.331.

same assay, conditions: 1 µM; days in culture: 254

First: CCOc1ccn(-c2ccc(F)cc2)c(=O)c1C(=O)Nc1ccc(Oc2ccnc(N)c2Cl)c(F)c1 [ASLAN002]
Second: O=C(c1cc(Cc2n[nH]c(=O)c3ccccc23)ccc1F)N1CCN(C(=O)C2CC2)CC1 [olaparib]
The “CTG-3D luminescence at 96 h” value of the first is lower: 1.85 for the first, 1.88 for the second.

Compared with `C[C@@H](Nc1cc(F)cc(F)c1)c1cc(C(=O)N(C)C)cc2c(=O)cc(N3CCOCC3)oc12` [AZD-8186], `CC(=O)c1c(C)c2cnc(Nc3ccc(N4CCNCC4)cn3)nc2n(C2CCCC2)c1=O` [palbociclib] is higher in “CTG-3D luminescence at 96 h” value: 0.901 for the first, 1.17 for the second.

With `COc1cccc2c1C(=O)c1c(O)c3c(c(O)c1C2=O)C[C@@](O)(C(=O)CO)C[C@@H]3O[C@H]1C[C@H](N)[C@@H](O)[C@H](C)O1` [epirubicin] the “CTG-3D luminescence at 96 h” value was 0.196.

same assay, conditions: 10 µM; days in culture: 202

Going from `CCOc1ccn(-c2ccc(F)cc2)c(=O)c1C(=O)Nc1ccc(Oc2ccnc(N)c2Cl)c(F)c1` [ASLAN002] to `O=C(c1cc(Cc2n[nH]c(=O)c3ccccc23)ccc1F)N1CCN(C(=O)C2CC2)CC1` [olaparib], the “CTG-3D luminescence at 96 h” value falls from 1.41 to 1.01.

Compared with `C[C@@H](Nc1cc(F)cc(F)c1)c1cc(C(=O)N(C)C)cc2c(=O)cc(N3CCOCC3)oc12` [AZD-8186], `CC(=O)c1c(C)c2cnc(Nc3ccc(N4CCNCC4)cn3)nc2n(C2CCCC2)c1=O` [palbociclib] is lower in “CTG-3D luminescence at 96 h” value: 1.61 for the first, 1.1 for the second.

In the case of `COc1cccc2c1C(=O)c1c(O)c3c(c(O)c1C2=O)C[C@@](O)(C(=O)CO)C[C@@H]3O[C@H]1C[C@H](N)[C@@H](O)[C@H](C)O1` [epirubicin], the “CTG-3D luminescence at 96 h” value is reported as 0.201.
